Assay results as given in PubChem BioAssay (NCI).
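Each compound was tested at five concentrations against cells in 96-well plates for 48 hours. GI50 is the concentration that inhibits growth by half. TGI is the concentration that stops growth completely.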

What was measured:
Assay in all cases: inhibition of tumour cell growth, NCI panel, 48 h
[1] = system: SK-MEL-5 melanoma
[2] = system: EKVX NSCLC
[3] = system: A498 renal
[4] = system: UO-31 renal
[5] = system: KM12 colon
[6] = system: OVCAR-5 ovarian
[7] = system: MDA-MB-435
[8] = system: M14 melanoma
[9] = system: K-562 leukemia
[10] = system: SF-268 CNS
[11] = system: HOP-62 NSCLC
[12] = system: SN12C renal
[13] = system: RPMI-8226 leukemia
[14] = system: SK-MEL-28 melanoma
[15] = system: HS 578T breast
[16] = system: NCI-H522 lung
[17] = system: UACC-257 melanoma
[18] = system: UACC-62 melanoma
[19] = system: HOP-92 NSCLC
[20] = system: OVCAR-8 ovarian
[21] = system: 786-0 renal
[22] = system: RXF 393 renal
[23] = system: NCI-H226 lung
[24] = system: DU-145 prostate
[25] = system: HCT-15 colon
[26] = system: NCI/ADR-RES ovarian
[27] = system: LOX IMVI melanoma
[28] = system: TK-10 renal
[29] = system: OVCAR-4 ovarian
[30] = system: CAKI-1 renal
[31] = system: SW-620 colon
[32] = system: MDA-MB-231 breast
[33] = system: NCI-H23 lung
[34] = system: SK-OV-3 ovarian
[35] = system: BT-549 breast
[36] = system: MCF7 breast
[37] = system: CCRF-CEM leukemia
[38] = system: NCI-H460 lung
[39] = system: A549 NSCLC
[40] = system: MOLT-4 leukemia
[41] = system: SF-539 CNS
[42] = system: SK-MEL-2 melanoma
[43] = system: SNB-19 CNS
[44] = system: ACHN renal
[45] = system: OVCAR-3 ovarian
[46] = system: U251 CNS
[47] = system: HCC-2998 colon
[48] = system: PC-3 prostate
[49] = system: IGROV1 ovarian
[50] = system: T-47D breast
[51] = system: MALME-3M melanoma
[52] = system: HT29 colon
[53] = system: SF-295 CNS
[54] = system: SR leukemia
[55] = system: SNB-75 CNS
[56] = system: HL-60(TB) leukemia
[57] = system: HCT-116 colon
[58] = system: COLO 205 colon

## COC(=O)c1ccc2[nH]c(O)c(C(=Nc3ccc(N(C)C(=O)CN4CCN(C)CC4)cc3)c3ccc(OC)cc3)c2c1
[1]
  GI50: 1.35 µM
  TGI: 2.77 µM
[2]
  GI50: 2.38 µM
  TGI: 12.4 µM
[3]
  GI50: 1.52 µM
  TGI: 3.11 µM
[4]
  GI50: 1.37 µM
  TGI: 4.46 µM
[5]
  GI50: 0.0432 µM
  TGI: 6.45 µM
[6]
  GI50: 5.21 µM
  TGI: 17.6 µM
[7]
  GI50: 2.05 µM
  TGI: 14.5 µM
[8]
  GI50: 0.724 µM
  TGI: 2.28 µM
[9]
  GI50: 0.255 µM
  TGI: 10.2 µM
[10]
  GI50: 2.61 µM
  TGI: 13.6 µM
[11]
  GI50: 1.57 µM
  TGI: 12.4 µM
[12]
  GI50: 0.41 µM
  TGI: 13.1 µM
[13]
  GI50: 1.46 µM
  TGI: 4.4 µM
[14]
  GI50: 3.15 µM
  TGI: 14 µM
[15]
  GI50: 0.186 µM
  TGI: 10.3 µM
[16]
  GI50: 1.66 µM
  TGI: 5.6 µM
[17]
  GI50: 10.5 µM
  TGI: 22.8 µM
[18]
  GI50: 4.96 µM
  TGI: 18.6 µM
[19]
  GI50: 3.7 µM
  TGI: 15.2 µM
[20]
  GI50: 1.18 µM
  TGI: 24.6 µM
[21]
  GI50: 0.73 µM
  TGI: 2.13 µM
[22]
  GI50: 0.466 µM
  TGI: 1.82 µM
[23]
  GI50: 0.906 µM
  TGI: 18.9 µM
[24]
  GI50: 2.37 µM
  TGI: 11.3 µM
[25]
  GI50: 1.81 µM
  TGI: 6.61 µM
[26]
  GI50: 12.5 µM
  TGI: 37.2 µM
[27]
  GI50: 0.506 µM
  TGI: 2.13 µM
[28]
  GI50: 2.39 µM
  TGI: 12.4 µM
[29]
  GI50: 0.928 µM
  TGI: 3.14 µM
[30]
  GI50: 0.383 µM
  TGI: 11.1 µM
[31]
  GI50: 0.756 µM
  TGI: 4.35 µM
[32]
  GI50: 1.07 µM
  TGI: 2.95 µM
[33]
  GI50: 1.25 µM
  TGI: 3.64 µM
[34]
  GI50: 0.228 µM
  TGI: 1.75 µM
[35]
  GI50: 1.15 µM
  TGI: 2.65 µM
[36]
  GI50: 0.518 µM
  TGI: 2.49 µM
[37]
  GI50: 0.414 µM
  TGI: 11.1 µM
[38]
  GI50: 1.48 µM
  TGI: 3.76 µM
[39]
  GI50: 2.01 µM
  TGI: 12.1 µM
[40]
  GI50: 0.414 µM
  TGI: 3.62 µM
[41]
  GI50: 0.473 µM
  TGI: 1.76 µM
[42]
  GI50: 2.04 µM
  TGI: 7.04 µM
[43]
  GI50: 2.1 µM
  TGI: 10 µM
[44]
  GI50: 1.71 µM
  TGI: 10.3 µM
[45]
  GI50: 1.23 µM
  TGI: 2.83 µM
[46]
  GI50: 1.09 µM
  TGI: 2.48 µM
[47]
  GI50: 2.12 µM
  TGI: 10.6 µM
[48]
  GI50: 1.16 µM
  TGI: 7.77 µM
[49]
  GI50: 0.226 µM
  TGI: 2.6 µM
[50]
  GI50: 1.82 µM
  TGI: 18.1 µM
[51]
  GI50: 1.33 µM
  TGI: 2.72 µM
[52]
  GI50: 1.11 µM
  TGI: 25.2 µM
[53]
  GI50: 1.25 µM
  TGI: 3.49 µM
[54]
  GI50: 0.309 µM
  TGI: 4.92 µM
[55]
  GI50: 0.294 µM
  TGI: 8.27 µM
[56]
  GI50: 0.712 µM
  TGI: 3.15 µM
[57]
  GI50: 0.227 µM
  TGI: 10.1 µM
[58]
  GI50: 0.664 µM
  TGI: 2.34 µM

## CC(=O)Nc1cccc(C#Cc2cncnc2Nc2ccc(OCc3cccc(F)c3)c(Cl)c2)n1
[1]
  GI50: > 18.8 µM
  TGI: > 25 µM
[2]
  GI50: 0.475 µM
  TGI: > 25 µM
[3]
  GI50: 1.22 µM
  TGI: > 25 µM
[4]
  GI50: 22.5 µM
  TGI: > 25 µM
[5]
  GI50: > 25 µM
  TGI: > 25 µM
[6]
  GI50: > 23.4 µM
  TGI: > 25 µM
[7]
  GI50: > 20.4 µM
  TGI: > 25 µM
[8]
  GI50: 16.1 µM
  TGI: > 25 µM
[9]
  GI50: > 25 µM
  TGI: > 25 µM
[10]
  GI50: > 18.8 µM
  TGI: > 25 µM
[11]
  GI50: 10.3 µM
  TGI: > 25 µM
[12]
  GI50: > 25 µM
  TGI: > 25 µM
[13]
  GI50: > 25 µM
  TGI: > 25 µM
[14]
  GI50: 14.8 µM
  TGI: > 25 µM
[15]
  GI50: 24.9 µM
  TGI: > 25 µM
[16]
  GI50: 8.25 µM
  TGI: > 25 µM
[17]
  GI50: > 21.5 µM
  TGI: > 25 µM
[18]
  GI50: 24.4 µM
  TGI: > 25 µM
[19]
  GI50: 3.61 µM
  TGI: 18.2 µM
[20]
  GI50: 15.4 µM
  TGI: > 25 µM
[21]
  GI50: > 22.5 µM
  TGI: > 25 µM
[22]
  GI50: 20.8 µM
  TGI: > 25 µM
[23]
  GI50: > 17.8 µM
  TGI: > 25 µM
[24]
  GI50: 8.62 µM
  TGI: > 25 µM
[25]
  GI50: > 25 µM
  TGI: > 25 µM
[26]
  GI50: 20.7 µM
  TGI: > 25 µM
[27]
  GI50: > 18.5 µM
  TGI: > 25 µM
[28]
  GI50: 0.412 µM
  TGI: > 17.6 µM
[29]
  GI50: > 22.7 µM
  TGI: > 25 µM
[30]
  GI50: 2.28 µM
  TGI: > 25 µM
[31]
  GI50: 23.1 µM
  TGI: > 25 µM
[32]
  GI50: 6.04 µM
  TGI: > 25 µM
[33]
  GI50: > 25 µM
  TGI: > 25 µM
[34]
  GI50: 1.06 µM
  TGI: > 25 µM
[35]
  GI50: > 25 µM
  TGI: > 25 µM
[36]
  GI50: > 25 µM
  TGI: > 25 µM
[37]
  GI50: > 25 µM
  TGI: > 25 µM
[38]
  GI50: 11.9 µM
  TGI: > 25 µM
[39]
  GI50: 6.81 µM
  TGI: > 25 µM
[40]
  GI50: > 25 µM
  TGI: > 25 µM
[41]
  GI50: > 23.3 µM
  TGI: > 25 µM
[42]
  GI50: 10.4 µM
  TGI: > 25 µM
[43]
  GI50: > 21.7 µM
  TGI: > 25 µM
[44]
  GI50: 2.87 µM
  TGI: > 25 µM
[45]
  GI50: > 21.6 µM
  TGI: > 25 µM
[46]
  GI50: 7.14 µM
  TGI: > 23.4 µM
[47]
  GI50: > 25 µM
  TGI: > 25 µM
[48]
  GI50: 9.4 µM
  TGI: > 25 µM
[49]
  GI50: 4.2 µM
  TGI: > 25 µM
[50]
  GI50: 2.57 µM
  TGI: > 25 µM
[51]
  GI50: 9.55 µM
  TGI: > 25 µM
[52]
  GI50: 17.6 µM
  TGI: > 25 µM
[53]
  GI50: 13.7 µM
  TGI: > 25 µM
[54]
  GI50: > 25 µM
  TGI: > 25 µM
[55]
  GI50: 11.9 µM
  TGI: > 25 µM
[56]
  GI50: > 25 µM
  TGI: > 25 µM
[57]
  GI50: 11.6 µM
  TGI: > 25 µM
[58]
  GI50: > 22.2 µM
  TGI: > 25 µM
